Take `CCCCCCCCCCCc1ccccc1O`: the logP came to 7.17.
`CCCCCCCCCc1ccccc1O`: the logP amounted to 5.76.
Compound `CCCCCCCCCCCCCc1ccccc1O` returned a logP of 8.61.
`CCCCCCCCCCCCCCCc1ccc(O)cc1O` showed a logP of 8.29.
To `CCCCCCCCCc1ccc(O)cc1O` belongs 4.1; to `CCCCCCCc1ccccc1O`, 4.45.
Next, `CCCCCCCCCCCc1cccc(O)c1O`: 6.3; `CCCCCCCCCc1cccc(O)c1`: 5.61.
Compound `CCCCCCCCCCCCCc1cccc(O)c1` returned a logP of 8.84.
Regarding `CCCCCCCCCCCCCCCc1cccc(O)c1`, the logP stood at 10.1.
As to `CCCCCCCc1ccc(O)cc1`, the logP was 4.15.
Next, `CCCCCCCCCCCc1ccc(O)cc1`: 7.18; `CCCCCc1cccc(O)c1`: 3.13.
Take `CCCCCCCCCc1ccc(O)cc1`: the logP was determined as 5.76.
Regarding `CCCCCc1ccc(O)c(O)c1`, the logP stood at 3.13.
Compound `CCCCCCCCCCCCCc1cccc(O)c1O` had a logP of 7.75.
Compound `CCCCCCCc1cccc(O)c1O` registered a log partition coefficient (logP) of 3.59.
To `CCCCCCCCCCCc1cccc(O)c1` belongs 6.98; to `CCCCCCCCCCCc1ccc(O)c(O)c1`, 6.94; to `CCCCCCCCCCCCCCCc1ccccc1O`, 10.1.
Next, `CCCCCCCCCCCCc1ccc(O)cc1`: 7.91.
Consider `CCCCCCCCCCCCCc1ccc(O)cc1O`, for which the logP was determined as 6.84.
Next, `CCCCCCCCCCCCCc1ccc(O)cc1`: 8.2; `CCCCCCCCCc1cccc(O)c1O`: 4.86.
Next, `CCCCCCCCCCCCCCCc1ccc(O)c(O)c1`: 9.9; `CCCCCCCCCCCc1ccc(O)cc1O`: 5.43; `CCCCCCCCCCCCCCCc1cccc(O)c1O`: 9.27.
Consider `CCCCCCCc1ccc(O)cc1O`, for which the logP is 2.9.
The compound `CCCCCCCCCCCCCc1ccc(O)c(O)c1` returned a logP of 8.42.
The compound `CCCCCCCCCc1ccc(O)c(O)c1` registered a logP of 5.54.

The values above are taken from the SangsterLogP compilation.
